Assay [1] deals with E. coli SPase (Escherichia coli, UniProt P00803). Nature of the assay: Biochemical SPase activity assay (fluorogenic peptide substrate), E. coli enzyme.
Assay [2] has as its target S. aureus SPase (Staphylococcus aureus, UniProt P0A070). Nature of the assay: biochemical.
In assay [3] the test system is methicillin resistant Staphylococcus aureus (MRSA) strain USA300 (NRS384). The note with it: Method B, 35° C., 22 hours.
Protocol: In vitro antimicrobial activity of each compound was determined by measuring minimal inhibitor concentrations (MICs) using the broth micro-dilution technique as approved by the Clinical and Laboratory Standards Institute (CLSI). […] Bacterial inocula were prepared by scraping cells into 1 mL of testing media (cation adjusted Mueller Hinton Broth supplemented with 0.002% v/v Tween-80) and diluting to a final OD600 nm of 0.01.
Test compounds were prepared in DMSO at a concentration of 10 mg/ml. […] Bacterial inocula were added to the two fold serial dilutions of test compounds to a final density of OD OD600 nm of 0.0005 and incubated stationarily at 35° C. for 22 hours, after which the plates were examined visually.
Assay [4] has as its system Escherichia coli strain MC4100 IMP-4213, which harbors an LptD mutation. To be noted: Method B; E. coli MC4100 IMP-4213 (LptD mutation); 35° C., 22 hours. In short, it runs like this: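 Two-fold serial dilutions of compound inoculated at final OD600 0.0005, incubated static at 35 °C for 22 h, and growth read visually.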

Values after ≈ are worked out from the molar mass of the structure shown. Square brackets hold non-standard residues; d marks the D form. Peptide text beside a SMILES is read from it. * marks the point of attachment. ξ: configuration not given here. boroAla((+)-pinanediol) = C[C@H](N*)B1O[C@@H]2C[C@@H]3C[C@@H](C3(C)C)[C@]2(C)O1; Biphenylcarbonyl(4'-Bu) = CCCCc1ccc(-c2ccc(C(=O)*)cc2)cc1; X1 = C[C@H](N*)B1OC2C[C@@H]3C[C@@H](C3(C)C)[C@]2(C)O1; NMeT = CN[C@H](C(=O)O)[C@@H](C)O; Decanoyl = CCCCCCCCCC(=O)*; Dab = NCC[C@H](N)C(=O)O; Dap = NC[C@H](N)C(=O)O; Ac3c = NC1(C(=O)O)CC1; ξOrn = NCCCC(N)C(=O)O; βAla = NCCC(=O)O

Chain of S. aureus SPase (P0A070 whole entry): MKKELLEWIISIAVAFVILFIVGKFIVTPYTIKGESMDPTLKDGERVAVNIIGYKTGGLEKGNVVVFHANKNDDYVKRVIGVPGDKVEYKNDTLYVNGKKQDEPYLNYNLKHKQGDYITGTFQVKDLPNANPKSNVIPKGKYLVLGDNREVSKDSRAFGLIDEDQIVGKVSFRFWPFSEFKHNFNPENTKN
Chain of E. coli SPase (P00803 whole entry): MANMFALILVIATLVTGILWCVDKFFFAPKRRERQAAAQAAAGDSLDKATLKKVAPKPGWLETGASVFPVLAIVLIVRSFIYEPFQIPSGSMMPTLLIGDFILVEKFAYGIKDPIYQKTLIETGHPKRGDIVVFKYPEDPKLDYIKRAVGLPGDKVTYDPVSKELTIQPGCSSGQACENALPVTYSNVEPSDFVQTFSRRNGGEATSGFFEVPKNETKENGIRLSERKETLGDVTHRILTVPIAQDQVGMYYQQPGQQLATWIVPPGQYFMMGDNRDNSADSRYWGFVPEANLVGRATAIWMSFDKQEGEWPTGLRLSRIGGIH

On to `CCCCCCCCCC(=O)N[C@@H](CN)C(=O)N[C@H](C(=O)N[C@@H](C)C(=O)N[C@@H](CCCCN)C(=O)N[C@@H](C)B1OC2C[C@@H]3C[C@@H](C3(C)C)[C@]2(C)O1)[C@@H](C)O` (some centres unmarked) [Compound 169] (Decanoyl-[Dap]TAK-X1), for which the IC50 is 0.0039 µM in assay [1] and 0.087 µM in assay [2]. Also, the “MIC (μg/mL) S. aureus” value in assay [3] worked out at 3.2 µg/mL (≈ 4.19 µM). For the same molecule, the “MIC (μg/mL) E. coli” value in assay [4] worked out at 11 µg/mL (≈ 14.4 µM).

Take `CCCCc1ccc(-c2ccc(C(=O)NCCC(=O)N[C@@H](CCCCN)C(=O)N[C@H](C(=O)N[C@@H](C)C(=O)NC3(C(=O)N[C@@H](C)B4OC5C[C@@H]6C[C@@H](C6(C)C)[C@]5(C)O4)CC3)[C@@H](C)O)cc2)cc1` (some centres unmarked) [Compound 219] ({Biphenylcarbonyl(4'-Bu)-βAla}-KTA[Ac3c]-X1): the IC50 in assay [1] stood at 0.56 µM; in assay [2], 0.046 µM. Also, the “MIC (μg/mL) S. aureus” value in assay [3] was 5 µg/mL (≈ 5.47 µM). Further, the “MIC (μg/mL) E. coli” value in assay [4] amounted to 64 µg/mL (≈ 70 µM).

Regarding `CCCCc1ccc(-c2ccc(C(=O)NCCC(=O)N[C@@H](CCCCN)C(=O)NC(CCCN)C(=O)N[C@@H](C)C(=O)N[C@@H](CC(C)C)C(=O)N[C@@H](C)B3OC4C[C@@H]5C[C@@H](C5(C)C)[C@]4(C)O3)cc2)cc1` (some centres unmarked) [Compound 217] ({Biphenylcarbonyl(4'-Bu)-βAla}-K[ξOrn]AL-X1), the results for the half-maximal inhibitory concentration (IC50) in assay [1] and in assay [2] were 0.015 µM and 0.014 µM, respectively. For the same molecule, the “MIC (μg/mL) S. aureus” value in assay [3] is 0.35 µg/mL (≈ 0.366 µM). Moreover, the “MIC (μg/mL) E. coli” value in assay [4] was 1.6 µg/mL (≈ 1.67 µM).

Regarding `CCCCc1ccc(-c2ccc(C(=O)N[C@@H](CCCCN)C(=O)N3CCC[C@H]3C(=O)N[C@@H](C)C(=O)N[C@@H](CC(N)=O)C(=O)N[C@@H](C)B3O[C@@H]4C[C@@H]5C[C@@H](C5(C)C)[C@]4(C)O3)cc2)cc1` [Compound 133] ({Biphenylcarbonyl(4'-Bu)}-KPAN-{boroAla((+)-pinanediol)}), the IC50 in assay [1] is 0.015 µM; in assay [2] it was 0.17 µM. In assay [3], the “MIC (μg/mL) S. aureus” value stood at 1.4 µg/mL (≈ 1.61 µM). In assay [4], the “MIC (μg/mL) E. coli” value worked out at 0.79 µg/mL (≈ 0.908 µM).

As for `CCCCc1ccc(-c2ccc(C(=O)N[C@@H](CCN)C(=O)N[C@@H](CCN)C(=O)N[C@@H](C)C(=O)N[C@@H](CO)C(=O)N[C@@H](C)B3O[C@@H]4C[C@@H]5C[C@@H](C5(C)C)[C@]4(C)O3)cc2)cc1` [Compound 185] ({Biphenylcarbonyl(4'-Bu)}-[Dab][Dab]AS-{boroAla((+)-pinanediol)}), the 50% inhibitory concentration (IC50) in assay [1] was 0.041 µM; in assay [2], 0.58 µM. In assay [3], the “MIC (μg/mL) S. aureus” value is 4 µg/mL (≈ 4.89 µM). Also, in assay [4], the “MIC (μg/mL) E. coli” value turned out to be 0.71 µg/mL (≈ 0.868 µM).

As to `CCCCc1ccc(-c2ccc(C(=O)NCCC(=O)N[C@@H](CCCCN)C(=O)N[C@H](C(=O)N[C@@H](C)C(=O)N[C@@H](CCC(=O)O)C(=O)N[C@@H](C)B3OC4C[C@@H]5C[C@@H](C5(C)C)[C@]4(C)O3)[C@@H](C)O)cc2)cc1` (some centres unmarked) [Compound 195] ({Biphenylcarbonyl(4'-Bu)-βAla}-KTAE-X1), the IC50 in assay [1] came to 0.019 µM; in assay [2] it was 0.0026 µM. For the same molecule, the “MIC (μg/mL) S. aureus” value in assay [3] is 1.2 µg/mL (≈ 1.25 µM). For the same molecule, the “MIC (μg/mL) E. coli” value in assay [4] came to 32 µg/mL (≈ 33.3 µM).

`CCCCc1ccc(-c2ccc(C(=O)N[C@@H](CCCCN)C(=O)N[C@@H](CCCCN)C(=O)N[C@@H](C)C(=O)N[C@@H](CC(N)=O)C(=O)N[C@@H](C)B3O[C@@H]4C[C@@H]5C[C@@H](C5(C)C)[C@]4(C)O3)cc2)cc1` [Compound 134] ({Biphenylcarbonyl(4'-Bu)}-KKAN-{boroAla((+)-pinanediol)}): the results for the 50% inhibitory concentration (IC50) in assay [1] and in assay [2] were 0.0087 µM and 0.12 µM, respectively. The “MIC (μg/mL) S. aureus” value in assay [3] came to 0.87 µg/mL (≈ 0.966 µM). In addition, the “MIC (μg/mL) E. coli” value in assay [4] is 1.4 µg/mL (≈ 1.55 µM).

As to `CCCCc1ccc(-c2ccc(C(=O)N3CCC(C(=O)N[C@H](C(=O)N[C@@H](C)C(=O)N[C@@H](CCCCN)C(=O)N[C@@H](C)B4O[C@@H]5C[C@@H]6C[C@@H](C6(C)C)[C@]5(C)O4)[C@@H](C)O)CC3)cc2)cc1` [Compound 272], the results for the concentration for half-maximal inhibition (IC50) in assay [1] and in assay [2] were 1.3 µM and 0.05 µM, respectively. The “MIC (μg/mL) S. aureus” value in assay [3] turned out to be 0.71 µg/mL (≈ 0.815 µM). Besides, the “MIC (μg/mL) E. coli” value in assay [4] was 32 µg/mL (≈ 36.7 µM).

With `CCCCc1ccc(-c2ccc(C(=O)N[C@@H](Cc3c[nH]cn3)C(=O)N[C@H](C(=O)N[C@@H](C)C(=O)N[C@@H](CCCCN)C(=O)N[C@@H](C)B3OC4C[C@@H]5C[C@@H](C5(C)C)[C@]4(C)O3)[C@@H](C)O)cc2)cc1` (some centres unmarked) [Compound 143] ({Biphenylcarbonyl(4'-Bu)}-HTAK-X1), the values for the IC50 in assay [1] and in assay [2] were 0.25 µM and 0.18 µM, respectively. Moreover, in assay [3], the “MIC (μg/mL) S. aureus” value worked out at 0.35 µg/mL (≈ 0.39 µM). Moreover, in assay [4], the “MIC (μg/mL) E. coli” value stood at 5.7 µg/mL (≈ 6.35 µM).

Regarding `CCCCc1ccc(-c2ccc(C(=O)N[C@@H](CCCCN)C(=O)N[C@H](C(=O)N[C@@H](C)C(=O)N[C@@H](CCCCN)C(=O)N[C@@H](C)B3OC4C[C@@H]5C[C@@H](C5(C)C)[C@]4(C)O3)[C@@H](C)O)cc2)cc1` (some centres unmarked) [Compound 132] ({Biphenylcarbonyl(4'-Bu)}-KTAK-X1), the IC50 in assay [1] was 0.024 µM; in assay [2], 0.077 µM. In addition, the “MIC (μg/mL) S. aureus” value in assay [3] was determined as 0.21 µg/mL (≈ 0.236 µM). Further, the “MIC (μg/mL) E. coli” value in assay [4] stood at 1 µg/mL (≈ 1.13 µM).

For the molecule `CCCCc1ccc(-c2ccc(C(=O)NCCC(=O)N[C@@H](CCCCN)C(=O)N[C@@H](CCCCN)C(=O)N[C@@H](C)C(=O)N[C@@H](CCCCN)C(=O)N[C@@H](C)B3OC4C[C@@H]5C[C@@H](C5(C)C)[C@]4(C)O3)cc2)cc1` (some centres unmarked) [Compound 207] ({Biphenylcarbonyl(4'-Bu)-βAla}-KKAK-X1), the IC50 came to 0.087 µM in assay [1] and 0.013 µM in assay [2]. Further, in assay [3], the “MIC (μg/mL) S. aureus” value was found to be 0.099 µg/mL (≈ 0.1 µM). For the same molecule, the “MIC (μg/mL) E. coli” value in assay [4] amounted to 2 µg/mL (≈ 2.03 µM).

`CCCCc1ccc(-c2ccc(C(=O)N[C@@H](Cc3c[nH]c4ccccc34)C(=O)N[C@H](C(=O)N[C@@H](C)C(=O)N[C@@H](CCCCN)C(=O)N[C@@H](C)B3OC4C[C@@H]5C[C@@H](C5(C)C)[C@]4(C)O3)[C@@H](C)O)cc2)cc1` (some centres unmarked) [Compound 138] ({Biphenylcarbonyl(4'-Bu)}-WTAK-X1): the IC50 in assay [1] was determined as 1 µM; in assay [2], 1.1 µM. Besides, the “MIC (μg/mL) S. aureus” value in assay [3] worked out at 5 µg/mL (≈ 5.29 µM). For the same molecule, the “MIC (μg/mL) E. coli” value in assay [4] is above 64 µg/mL.

In the case of `CCCCc1ccc(-c2ccc(C(=O)N[C@H](CO)C(=O)N[C@H](C)C(=O)NCC(=O)N(C)[C@H](C(=O)N[C@@H](C)C(=O)N[C@@H](CC(N)=O)C(=O)N[C@@H](C)B3OC4C[C@@H]5C[C@@H](C5(C)C)[C@]4(C)O3)[C@@H](C)O)cc2)cc1` (some centres unmarked) [Compound 226] ({Biphenylcarbonyl(4'-Bu)}-[dS][dA]G[NMeT]AN-X1), the results for the half-maximal inhibitory concentration (IC50) in assay [1] and in assay [2] were 0.44 µM and 0.14 µM, respectively. The “MIC (μg/mL) S. aureus” value in assay [3] worked out at 2.8 µg/mL (≈ 2.87 µM). For the same molecule, the “MIC (μg/mL) E. coli” value in assay [4] was 25 µg/mL (≈ 25.6 µM).

For `CCCCc1ccc(-c2ccc(C(=O)NCCCC[C@H](NC(=O)[C@H](CCN)NC(C)=O)C(=O)N[C@@H](C)C(=O)N[C@@H](CCCCN)C(=O)N[C@@H](C)B3OC4C[C@@H]5C[C@@H](C5(C)C)[C@]4(C)O3)cc2)cc1` (some centres unmarked) [Compound 279] (Ac-[Dab]K(Biphenylcarbonyl(4'-Bu))AK-X1), the IC50 worked out at 0.53 µM in assay [1] and 7.4 µM in assay [2]. In assay [3], the “MIC (μg/mL) S. aureus” value worked out at 11 µg/mL (≈ 11.8 µM). In assay [4], the “MIC (μg/mL) E. coli” value was 8 µg/mL (≈ 8.61 µM).

For the origin of these results see patent US9708368B2, “Linear peptide antibiotics” (priority 2012, dated 2017).
